Like-named read-outs stand apart in the source and are kept apart here.
Key:
Prostate carcinoma = test: cells; conditions: Homo sapiens, 1 micromolar
Description: (§1) Cell cultures. To obtain tumor cells from human primary tumors we used the method described in De Bari et al. (De Bari et al. 2001). Briefly, small pieces of the tumors were digested into a hyaluronidase solution (Sigma-Aldrich, USA) at a concentration of 1 mg/ml during 15 minutes at 37°C, and then they were treated with 6 mg/ml of collagenase type IV (Invitrogen) during 2 hours at 37°C. Consecutively, cells were washed, and resuspended in the DMEM culture medium with high concentration of glucose (Dulbecco's Modified Eagle's Medium, Invitrogen) supplemented with 1% of antibiotics-antimycotics (Invitrogen) and with 1% of sodium pyruvate (Invitrogen), and the cells were seeded in culture slides at a concentration of 10.000 cells per square centimeter. When cells reached confluence, the adherent cells were separated using sterile trypsin at 0,5% (Invitrogen) and they were used among passages 3 and 9. For the assays shown next, tumor cells were seeded on slides at a concentration of 25.000 cells per well. A total of 6 wells containing the tumor cells were used as survival control. […] All the cultures were kept during 48 hours and later on recollected for their analysis.
(§2) Immunohistochemistry techniques. The presence of NK1 receptors was also analyzed using immunohistochemistry techniques. Briefly, a sample of each of the cultures of the cell lines used in the present invention, was centrifuged (5 minutes at 1.500 rpm) and the pellet obtained was dehydrated using increasing concentrations of ethanol and, finally, xylol. Then, said dehydrated samples were embedded in paraffin, creating a block of cells. Such paraffin blocks were cut with a microtome at 5 microns thickness, and were placed on microscope slides adequate to perform immunohistochemistry techniques. Consecutively, they were de-paraffinized by immersing them in xylol, to be finally hydrated using a solution containing decreasing concentrations of ethanol, and finally submerged them into water. […] After this, the samples were left to cool down at room temperature for 10 minutes. The endogenous peroxidase activity was blocked with 3% peroxide of hydrogen for 30 minutes at room temperature. After washing the samples with 0.05 M of Tris buffer, they were incubated with 10% non-immune pork serum at for 30 minutes at room temperature. To analyze the expression of NK1 receptors, the cellular samples were incubated in the presence of anti-NK1 antibodies (S8305, Sigma-Aldrich) diluted 1:1000, overnight at 4°C. Afterwards, the samples were washed in Tris buffer 0.05 M at room temperature. The next step was the addition of Envision System-HRP (Dako) reagents for 30 minutes at room temperature. Then, the samples were washed again in Tris buffer 0.05 M and the immunoreactivity was visualized through light microscopy with a chromogenic solution containing 3,3'-Diaminobenzidine (DAB+; Dako, USA). To differentiate the cell nuclei, they were slightly stained with hematoxylin. As negative control, it was used samples not incubated with the primary antibody anti-NK1, which was replaced by non-immune serum. All the samples were evaluated.
(§3) To value the immunostaining in each of the cases six cuts were performed to be analyzed by the immunohistochemistry technique. In each of the six cuts, it was counted cells in 20 fields (magnification 400x) using an Olympus microscope (model CX31). In each field it was counted the total number of cells and the number of cells presenting immunostaining, calculating afterwards the percentage of cells which presented immunostaining.

[1] = system: Thyroid carcinoma (papillary carcinoma); test: Inhibition of primary tumor cell cultures vs Kras mutation (Example 2); format: cell-based, human; conditions: Thyroid carcinoma (papillary carcinoma), 100 micromolar
Description: (§4) To obtain tumor cells from human primary tumors we used the method described in De Bari et al. (De Bari et al. 2001). Briefly, small pieces of the tumors were digested into a hyaluronidase solution (Sigma-Aldrich, USA) at a concentration of 1 mg/ml during 15 minutes at 37°C, and then they were treated with 6 mg/ml of collagenase type IV (Invitrogen) during 2 hours at 37°C. Consecutively, cells were washed, and resuspended in the DMEM culture medium with high concentration of glucose (Dulbecco's Modified Eagle's Medium, Invitrogen) supplemented with 1% of antibiotics-antimycotics (Invitrogen) and with 1% of sodium pyruvate (Invitrogen), and the cells were seeded in culture slides at a concentration of 10.000 cells per square centimeter. When cells reached confluence, the adherent cells were separated using sterile trypsin at 0,5% (Invitrogen) and they were used among passages 3 and 9. For the assays shown next, tumor cells were seeded on slides at a concentration of 25.000 cells per well. A total of 6 wells containing the tumor cells were used as survival control. […] All the cultures were kept during 48 hours and later on recollected for their analysis.
(§5) In each case the presence or not of mutations in K-ras gene was determined.
(§6) To determine the existence of mutations in the K-ras gene DNA from cancer tumor cells was extracted from samples obtained from the different cancer tumor cells, using DNA extraction kits from Takara (Madison, WI, US) or Ambion (Huntingdon, Cambridgeshire, United Kingdom), following the manufacturer's instructions, and as it has been previously published (Di Fiore F, et al. 2007). Consecutively it was analyzed by sequencing the exon 2 of the KRAS gene, , by means of PCR amplification from previously extracted cancer tumor DNA, using the following sense primer (SEQ ID NO. 15): 5'-[sequence]-3' and anti-sense primer (SEQ ID NO. 16): 5'-[sequence]-3'. After the purification using the Qiagen extraction kit, the PCR products were sequenced using the Big Dye Terminator Kit V3.1 (Applied Biosystems, Foster City, CA, U.S.) and an ABI Prism 377 or 3100 DNA sequencer (Applied Biosystems). The presence of a heterozygous mutation in the KRAS gene in cancer tumor cells of the cultures was defined as the appearance of a mutant peak of a height of at least a third of the wild type. All the sequence analysis were executed at least twice in two independent PCR.
(§7) The antibody against NK1 receptor (Table 16) was used at 1/50 concentration. The percentages of inhibition are expressed in percentage of variation in relation to control ± standard deviation.

Non Hodgkin Lymphoma B = test: Inhibition of primary tumor cell cultures (48 hours) vs NK1 receptor immunostaining (Example 1); format: cell-based; conditions: Homo sapiens, 1 micromolar, read-out: Percentage of inhibition of cell cultures
Description: as §1, §2, §3

Myeloma = test: as above; format: cell-based; conditions: Homo sapiens, 1 micromolar, read-out: Percentage of inhibition of cell cultures
Description: as §1, §2, §3

[2] = system: Lung carcinoma (small cell lung carcinoma); test: Inhibition of primary tumor cell cultures vs Kras mutation (Example 2); format: cell-based, human; conditions: Lung carcinoma (small cell lung carcinoma), 100 micromolar
Description: as §4, §5, §6, §7

[3] = system: Breast carcinoma (ductal adenocarcinoma); test: as above; format: cell-based, human; conditions: Breast carcinoma (ductal adenocarcinoma), 100 micromolar
Description: Cell cultures. […] Briefly, small pieces of the tumors were digested into a hyaluronidase solution (Sigma-Aldrich, USA) at a concentration of 1 mg/ml during 15 minutes at 37°C, and then they were treated with 6 mg/ml of collagenase type IV (Invitrogen) during 2 hours at 37°C. Consecutively, cells were washed, and resuspended in the DMEM culture medium with high concentration of glucose (Dulbecco's Modified Eagle's Medium, Invitrogen) supplemented with 1% of antibiotics-antimycotics (Invitrogen) and with 1% of sodium pyruvate (Invitrogen), and the cells were seeded in culture slides at a concentration of 10.000 cells per square centimeter. When cells reached confluence, the adherent cells were separated using sterile trypsin at 0,5% (Invitrogen) and they were used among passages 3 and 9. For the assays shown next, tumor cells were seeded on slides at a concentration of 25.000 cells per well. A total of 6 wells containing the tumor cells were used as survival control. […] All the cultures were kept during 48 hours and later on recollected for their analysis.
as §5, §6, §7

[4] = system: Undifferentiated Pleomorphic Sarcoma (malignant fibrous histiocytoma grade 3); test: as above; format: cell-based, human; conditions: Undifferentiated Pleomorphic Sarcoma (malignant fibrous histiocytoma grade 3), 100 micromolar
Description: as §1, §5, §6
The percentages of inhibition are expressed in percentage of variation in relation to control ± standard deviation.

[5] = system: human primary tumor cells; test: Inhibition of primary tumor cell cultures vs low or high expression of the truncated form of NK1 receptor (Example 5; tumor type per table line); format: cell-based; conditions: for Percentage of inhibition of cell cultures: 100 micromolar
Description: as §1
The presence of the truncated form of NK1 receptor was determined and then cells were cultured in presence of several antagonists of the NK1 receptor.
In each case the presence of the truncated form of the NK1 receptor was determined.
To determine the presence of the truncated form of the gene of NK1 receptor PCR technique was performed (Polymerase Chain Reaction). The extraction of RNA, amplifications of PCR, cycle conditions and quantitative analysis were executed as it has been previously described. The specific primers were the following: For the full-length NK1R receptor (NM_001058.3; forward (SEQ ID NO: 17)-: 5'-[sequence]-3 ' and reverse- (SEQ ID NO:18): 5'-[sequence]-3') and for the truncated NK1receptor (NM_015727.2; forward (SEQ ID NO: 19): 5'-[sequence]-3 and reverse (SEQ ID NO;20): 5'-[sequence]-3').
Cases were distributed in two groups: • Group A -low expression of the truncated form of NK1 receptor- for those cases wherein the expression of the truncated form of NK1 receptor was less than double the expression of the full length form of such receptor. • Group B -high expression of the truncated form of NK1 receptor- for those cases wherein the expression of the truncated form of the NK1 receptor was higher than double the expression of the full length form of such receptor.
The percentages of inhibition are expressed in percentage of variation in relation to the control ± standard deviation.

[6] = system: Carcinoma of the uterine cervix; test: Inhibition of primary tumor cell cultures (48 hours) vs NK1 receptor immunostaining (Example 1); format: cell-based; conditions: Homo sapiens, 1 micromolar, read-out: Percentage of inhibition of cell cultures
Description: as §1, §2, §3

Breast carcinoma = test: as above; format: cell-based; conditions: Homo sapiens, 1 micromolar, read-out: Percentage of inhibition of cell cultures
Description: as §1, §2, §3

[7] = Cases with Kras non-mutated (wild type)
[8] = NK1 receptor immunostaining Group 1 (less than 20% of the cells)
[9] = NK1 receptor immunostaining Group 2 (20-80% of the cells)
[10] = NK1 receptor immunostaining Group 3 (more than 80% of the cells)
[11] = NK1 receptor immunostaining Intensity grade 1
[12] = NK1 receptor immunostaining Intensity grade 2
[13] = NK1 receptor immunostaining Intensity grade 3

Cc1cc(F)ccc1[C@H]1CNCCN1C(=O)N(C)[C@H](C)c1cc(C(F)(F)F)cc(C(F)(F)F)c1 [Vestipitant]
inhibition at 1 µM (Prostate carcinoma; read-out: Percentage of inhibition of cell cultures, NK1 receptor immunostaining Group 1 (less than 20% of the cells)): 17 ± 4%
inhibition at 1 µM (Prostate carcinoma; read-out: Percentage of inhibition of cell cultures, NK1 receptor immunostaining Group 2 (20-80% of the cells)): 46 ± 3%
inhibition at 1 µM (Prostate carcinoma; read-out: Percentage of inhibition of cell cultures, NK1 receptor immunostaining Group 3 (more than 80% of the cells)): 92 ± 5%
inhibition at 1 µM (Prostate carcinoma; read-out: Percentage of inhibition of cell cultures, NK1 receptor immunostaining Intensity grade 1): 18 ± 4%
inhibition at 1 µM (Prostate carcinoma; read-out: Percentage of inhibition of cell cultures, NK1 receptor immunostaining Intensity grade 2): 47 ± 4%
inhibition at 1 µM (Prostate carcinoma; read-out: Percentage of inhibition of cell cultures, NK1 receptor immunostaining Intensity grade 3): 92 ± 4%
Percentage of inhibition of cell cultures ([1]; Cases with Kras mutated): 26±4 percentage
Percentage of inhibition of cell cultures [1, 7]: 94±5 percentage
inhibition at 1 µM (Non Hodgkin Lymphoma B; [8]): 14 ± 3%
inhibition at 1 µM (Non Hodgkin Lymphoma B; [9]): 45 ± 5%
inhibition at 1 µM (Non Hodgkin Lymphoma B; [10]): 93 ± 5%
inhibition at 1 µM (Non Hodgkin Lymphoma B; [11]): 16 ± 4%
inhibition at 1 µM (Non Hodgkin Lymphoma B; [12]): 47 ± 5%
inhibition at 1 µM (Non Hodgkin Lymphoma B; [13]): 93 ± 4%
inhibition at 1 µM (Myeloma; [8]): 15 ± 2%
inhibition at 1 µM (Myeloma; [9]): 45 ± 4%
inhibition at 1 µM (Myeloma; [10]): 93 ± 6%
inhibition at 1 µM (Myeloma; [11]): 17 ± 2%
inhibition at 1 µM (Myeloma; [12]): 47 ± 4%
inhibition at 1 µM (Myeloma; [13]): 93 ± 5%
Percentage of inhibition of cell cultures ([2]; Cases with Kras mutated): 23±4 percentage
Percentage of inhibition of cell cultures [2, 7]: 95±4 percentage
Percentage of inhibition of cell cultures ([3]; Cases with Kras mutated): 26±4 percentage
Percentage of inhibition of cell cultures [3, 7]: 97±5 percentage
Percentage of inhibition of cell cultures ([4]; Cases with Kras mutated): 26±4 percentage
Percentage of inhibition of cell cultures [4, 7]: 95±6 percentage
Percentage of inhibition of cell cultures ([5]; Glioma (astrocytoma), Cases with high expression of the truncated form of NK1 receptor (Group B)): 94±5 percentage
Percentage of inhibition of cell cultures ([5]; Glioma (astrocytoma), Cases with low expression of the truncated form of NK1 receptor (Group A)): 25±5 percentage
Percentage of inhibition of cell cultures ([5]; Lung carcinoma (non small cell lung carcinoma), Cases with high expression of the truncated form of NK1 receptor (Group B)): 94±4 percentage
Percentage of inhibition of cell cultures ([5]; Lung carcinoma (non small cell lung carcinoma), Cases with low expression of the truncated form of NK1 receptor (Group A)): 26±4 percentage
Percentage of inhibition of cell cultures ([5]; Melanoma (Nodular Melanoma), Cases with high expression of the truncated form of NK1 receptor (Group B)): 96±4 percentage
Percentage of inhibition of cell cultures ([5]; Melanoma (Nodular Melanoma), Cases with low expression of the truncated form of NK1 receptor (Group A)): 24±5 percentage
Percentage of inhibition of cell cultures ([5]; Non Hodgkin Lymphoma B (diffuse B cell lymphoma), Cases with high expression of the truncated form of NK1 receptor (Group B)): 98±5 percentage
Percentage of inhibition of cell cultures ([5]; Non Hodgkin Lymphoma B (diffuse B cell lymphoma), Cases with low expression of the truncated form of NK1 receptor (Group A)): 23±5 percentage
Percentage of inhibition of cell cultures ([5]; Non Hodgkin Lymphoma T (diffuse T cell lymphoma), Cases with high expression of the truncated form of NK1 receptor (Group B)): 98±4 percentage
Percentage of inhibition of cell cultures ([5]; Non Hodgkin Lymphoma T (diffuse T cell lymphoma), Cases with low expression of the truncated form of NK1 receptor (Group A)): 23±4 percentage
Percentage of inhibition of cell cultures ([5]; Prostate carcinoma, Cases with high expression of the truncated form of NK1 receptor (Group B)): 95±6 percentage
Percentage of inhibition of cell cultures ([5]; Prostate carcinoma, Cases with low expression of the truncated form of NK1 receptor (Group A)): 24±6 percentage
Percentage of inhibition of cell cultures ([5]; Thyroid carcinoma (follicular carcinoma), Cases with high expression of the truncated form of NK1 receptor (Group B)): 95±5 percentage
Percentage of inhibition of cell cultures ([5]; Thyroid carcinoma (follicular carcinoma), Cases with low expression of the truncated form of NK1 receptor (Group A)): 27±3 percentage
Percentage of inhibition of cell cultures ([5]; Thyroid carcinoma (papillary carcinoma), Cases with high expression of the truncated form of NK1 receptor (Group B)): 96±6 percentage
Percentage of inhibition of cell cultures ([5]; Thyroid carcinoma (papillary carcinoma), Cases with low expression of the truncated form of NK1 receptor (Group A)): 26±5 percentage
Percentage of inhibition of cell cultures ([5]; Undifferentiated Pleomorphic Sarcoma (malignant fibrous histiocytoma grade 3), Cases with high expression of the truncated form of NK1 receptor (Group B)): 95±3 percentage
Percentage of inhibition of cell cultures ([5]; Undifferentiated Pleomorphic Sarcoma (malignant fibrous histiocytoma grade 3), Cases with low expression of the truncated form of NK1 receptor (Group A)): 26±4 percentage
Percentage of inhibition of cell cultures ([5]; Urinary bladder carcinoma (transitional cell carcinoma), Cases with high expression of the truncated form of NK1 receptor (Group B)): 94±5 percentage
Percentage of inhibition of cell cultures ([5]; Urinary bladder carcinoma (transitional cell carcinoma), Cases with low expression of the truncated form of NK1 receptor (Group A)): 25±4 percentage
inhibition of cell proliferation ([5]; cancer cell cultures that show more expression of the truncated form of NK1 receptor, compared, non-peptidic antagonists 100 micromolar, antibody 1/50): higher inhibition
inhibition at 1 µM [6, 8]: 17 ± 4%
inhibition at 1 µM [6, 9]: 46 ± 3%
inhibition at 1 µM [6, 10]: 94 ± 4%
inhibition at 1 µM [6, 11]: 19 ± 3%
inhibition at 1 µM [6, 12]: 48 ± 3%
inhibition at 1 µM [6, 13]: 94 ± 3%
inhibition at 1 µM (Breast carcinoma; [8]): 12 ± 3%
inhibition at 1 µM (Breast carcinoma; [9]): 46 ± 3%
inhibition at 1 µM (Breast carcinoma; [10]): 93 ± 4%
inhibition at 1 µM (Breast carcinoma; [11]): 19 ± 4%
inhibition at 1 µM (Breast carcinoma; [12]): 45 ± 3%
inhibition at 1 µM (Breast carcinoma; [13]): 93 ± 3%

— patent publication EP2966448B1, “METHOD FOR THE PREDICTION OR PROGNOSIS OF THE RESPONSE OF A HUMAN SUBJECT SUFFERING FROM CANCER TO TREATMENT WITH AN ANTAGONIST OF THE NK1 RECEPTOR” (priority 2013, dated 2014)
